This is an account of results in patent publication US11267802B2 (BEBETTER MED INC., priority 2015, dated 2022).

A value given as a limit tells only on which side of the number the result lay.

In one data set the test system is H1975. As to the kind of experiment: Inhibition assay on tumor cell proliferation (CellTiter-Glo), H1975. To be noted: Homo sapiens, NCI-H1975; H1975 (L858R and T790M EGFR double mutation), 72 hours, 10% bovine serum. Type of data set: cell-based, Human. For orientation: Cellular ATP, detected with luciferase, serves as a proxy for viable cell number.
A short description of data set [1]: Pharmacokinetic experiments of tumor model (plasma and tumor tissue, H1975 xenograft mice). In kind it is in vivo, Balb/C nude mice. Conditions: oral 30 mg/kg; for AUC(0-inf) / Cmax / Tmax / half-life / AUC(0-t): Balb/C nude, mouse; for AUC(0-t): read-out: AUC0-24. How it is done:
Balb/C nude mice were purchased from Beijing Vital River Laboratory Animal Technology Co., Ltd., and housed in SPF animal room. The human non-small-cell lung cancer cell line H1975 in a culture dish was collected by trypsin-EDTA (0.25% trypsin, 1 mM EDTA), and then washed with a serum-free PBS solution. Lastly, the cells were implanted after diluted in a serum-free medium. Only the single cell suspension with a survival rate over 90% (Trypan blue rejection) can be used for injection. 5 million cells suspended in a 0.1 ml serum-free culture were injected into the front right flanking subcutaneous region of each mouse by using a 1 ml syringe and a 25G syringe needle, and the blood vessel was carefully avoided. The tumor size was measured in about one week after implantation. A caliper rule was used to measure the tumor size. The tumor volume was calculated by the following formula: tumor volume=(length×width^2)/2.
When the volume of H1975 xenograft tumor reached a volume of about 400 mm^3, the animals were divided into 6 oral administration groups, that is, excipient control group (0 hour) and groups of 30 minutes, 2 hours, 4 hours, 8 hours, and 24 hours after administration (3 animals at each time point). The compound 91 was dissolved in 30% sulfobutylated beta-cyclodextrin (SBE-β-CD) and 1 N HCl (pH 3-4) at a concentration of 3 mg/ml, and gavage administration at a dose of 30 mg/kg was performed. The mice were euthanized by CO2 at the above time points. Then their blood was collected from the heart and placed in a centrifuge tube containing K2-EDTA, and subjected to plasma collection by centrifugation. The tumor tissue was collected, cooled in liquid nitrogen immediately, and then stored under −80° C. until pharmacokinetic analysis.
Pharmacokinetic analysis was performed as below: the plasma sample and tumor tissue homogenate sample were mixed with 5 microliter of internal standard (IS), and then extracted with ethyl acetate. After vacuum drying, the residue was re-dissolved in acetonitrile. The sample was filtered and injected into LC-MS/MS for analysis.

The test system of another data set is H358. In words: Inhibition assay on tumor cell proliferation (CellTiter-Glo), H358. Type of data set: cell-based, Human. Conditions: Homo sapiens, NCI-H358; H358 (wild-type EGFR), 72 hours, 10% bovine serum. An outline of the steps:
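Viability from ATP content by CellTiter-Glo luminescence; inhibition normalised to DMSO (max) and medium-only (min) wells, IC50 by sigmoidal dose-response fitting. LOVO and H358 carry wild-type EGFR; HCC827 has exon 19 deletion.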

The nature of data set [2]: Pharmacokinetics in rats after oral administration. In kind it is in vivo, SD rats.
Data set [3] in a line: Pharmacokinetics in beagles after oral administration. In kind it is in vivo. Conditions: male, beagle, dog, 5 mg/kg, plasma. The procedure: Male SD rats weighing 250-300 g, or male beagles weighing 9-10 kg, were fasted overnight before the experiment. The object compounds were dissolved in 30% sulfobutylated beta-cyclodextrin (SBE-β-CD), and orally administrated to the rats at a dose of 20 mg/kg or to the beagles at a dose of 5 mg/kg. Blood samples were taken at 15 minutes, 30 minutes, 1 hour, 2 hours, 3 hours, 4 hours, 6 hours, 8 hours and 24 hours after administration. 0.3 ml of blood was collected at every time point, placed in a centrifuge tube containing K2-EDTA (ethylenediamine tetraacetic acid dipotassium) and centrifuged (2,000 g, 10 minutes, 4° C.) to collect plasma, which was then stored in an ultra cold storage freezer at −80° C. 50 μL of plasma sample was mixed with 5 μL of internal standard (IS), and then extracted with ethyl acetate. After vacuum drying, the residue was re-dissolved in acetonitrile. The sample was filtered and injected into LC-MS/MS for analysis.

The mark [4] stands for this setting: male, SD, rat, 20 mg/kg, plasma.

Regarding `C=CC(=O)Nc1cc(Nc2nccc(-n3c(=O)n(C(C)C)c4cc(F)ccc43)n2)c(OC)cc1N(C)CCN(C)C` [Compound 91, N-(2-((2-(dimethylamino)ethyl)(methyl)amino)-5-(4-(5-fluoro-3-isopropyl-2-oxo-2,3-dihydro-1H-benzo[d]imidazol-1-yl)pyrimidin-2-ylamino)-4-methoxyphenyl)acrylamide], the results for the half-maximal inhibitory concentration (IC50) with H1975 and with H358 were under 10 nM and 100 to 1000 nM, respectively. Besides, the area under the curve AUC(0-inf) in data set [1] (plasma) stood at 5130 ng·h/mL; in data set [1] (tumor tissue), 6840 ng·h/mL; in data set [2] (setting [4]), 1350 ng·h/mL; in data set [3] it was 814 ng·h/mL. The maximum concentration (Cmax) in data set [1] (plasma) was determined as 1720 ng/mL; in data set [1] (tumor tissue), 868 ng/mL; in data set [2] (setting [4]), 292 ng/mL; in data set [3], 109 ng/mL. In addition, the time of peak concentration (Tmax) in data set [1] (plasma) amounted to 0.5 h; in data set [1] (tumor tissue) it was 4 h; in data set [2] (setting [4]), 1 h; in data set [3], 1.67 h. The half-life in data set [1] (plasma) was 3.1 h; in data set [1] (tumor tissue), 5.5 h; in data set [2] (setting [4]), 3 h; in data set [3] it was 4.37 h. Also, the AUC(0-t) in data set [1] (plasma) came out at 5100 ng·h/mL; in data set [1] (tumor tissue), 6430 ng·h/mL; in data set [2] (male, SD, rat, 20 mg/kg, plasma, read-out: AUC0-24) it was 1340 ng·h/mL; in data set [3] (read-out: AUC0-24), 786 ng·h/mL. Moreover, the “absorption after oral administration (in words)” value in data set [1] is “absorbed quickly”. In addition, the “absorption / blood exposure after oral administration (in words)” value in data set [2] is listed as “well absorbed, with high blood exposure”.

The term IC50 denotes the midpoint of a concentration-inhibition curve. A higher IC50 goes with lower potency. The AUC(0-inf) is total exposure, with the tail of the curve extrapolated. The low end stands for low exposure, the high end for high exposure. As a reminder, the Cmax is the highest concentration seen after dosing. As usually defined, the Tmax is the time at which the peak concentration occurs. The half-life is the time in which the quantity being followed falls by half.
